Patent publication US20250064941A1, “SIGLEC LIGANDS, CONJUGATES, AND METHODS OF USE THEREOF” (Osprey Biopharmaceuticals, Inc., priority 2023, published 2025)

Experiments:
cynomolgus Siglec-2/CD22 = cynomolgus Siglec-2/CD22 (Macaca fascicularis, UniProt A0A2K5WCZ6); test: biochemical; format: binding; settings: SPR, steady-state analysis; read-out: Affinity cyno CD22
In short: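 SPR with desialylated (SialoExo, 4 h, 37° C.) cynomolgus CD22 amine-coupled to a CM5 chip. Running buffer 10 mM HEPES, 150 mM NaCl, 0.05% Tween-20, pH 7.5, 1% DMSO, with solvent correction; 120 s dissociation. Affinities from steady-state analysis.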

[1] = molecular target: T1, human Siglec-2/CD22 protein (Homo sapiens, UniProt P20273); test: SPR binding affinity to human CD22; settings: steady-state analysis
T1 construct: purchased Acro Biosystems SI2-H82E3
T1 sequence (P20273 20-847): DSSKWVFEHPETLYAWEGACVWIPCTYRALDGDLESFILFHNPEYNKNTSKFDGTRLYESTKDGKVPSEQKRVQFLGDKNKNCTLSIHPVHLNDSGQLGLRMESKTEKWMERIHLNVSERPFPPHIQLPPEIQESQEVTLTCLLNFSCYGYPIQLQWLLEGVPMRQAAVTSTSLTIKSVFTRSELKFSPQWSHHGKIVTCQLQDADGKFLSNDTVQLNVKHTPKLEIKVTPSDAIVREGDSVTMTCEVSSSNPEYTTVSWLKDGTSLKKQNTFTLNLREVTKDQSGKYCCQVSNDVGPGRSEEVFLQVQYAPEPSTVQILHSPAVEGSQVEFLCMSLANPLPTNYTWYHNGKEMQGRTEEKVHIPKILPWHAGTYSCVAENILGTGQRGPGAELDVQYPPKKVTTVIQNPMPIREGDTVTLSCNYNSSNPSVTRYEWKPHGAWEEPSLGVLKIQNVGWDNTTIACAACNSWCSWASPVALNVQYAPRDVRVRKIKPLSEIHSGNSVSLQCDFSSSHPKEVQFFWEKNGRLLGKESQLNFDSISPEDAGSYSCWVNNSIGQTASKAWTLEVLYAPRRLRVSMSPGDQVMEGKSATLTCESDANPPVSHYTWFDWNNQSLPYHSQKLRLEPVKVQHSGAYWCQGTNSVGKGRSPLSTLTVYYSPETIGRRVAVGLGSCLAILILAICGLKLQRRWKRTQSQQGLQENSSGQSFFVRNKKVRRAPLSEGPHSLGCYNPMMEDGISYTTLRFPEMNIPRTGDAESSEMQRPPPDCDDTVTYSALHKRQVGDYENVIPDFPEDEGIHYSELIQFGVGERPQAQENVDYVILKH
In short: (§1)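 SialoExo pretreatment, 4 h 37° C.; biotinylated CD22 on SA chip, Biacore 8K. Buffer 10 mM HEPES, 150 mM NaCl, 0.05% Tween-20, pH 7.5, 1% DMSO. Dissociation 120 s; solvent-corrected; steady-state KD.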

[2] = molecular target: T2, mouse Siglec-2-Fc-Avi (CD22) (Mus musculus, UniProt P35329); test: SPR binding affinity to mouse CD22; settings: steady-state analysis
T2 construct: made in house
T2 sequence (P35329 22-708 limits assumed): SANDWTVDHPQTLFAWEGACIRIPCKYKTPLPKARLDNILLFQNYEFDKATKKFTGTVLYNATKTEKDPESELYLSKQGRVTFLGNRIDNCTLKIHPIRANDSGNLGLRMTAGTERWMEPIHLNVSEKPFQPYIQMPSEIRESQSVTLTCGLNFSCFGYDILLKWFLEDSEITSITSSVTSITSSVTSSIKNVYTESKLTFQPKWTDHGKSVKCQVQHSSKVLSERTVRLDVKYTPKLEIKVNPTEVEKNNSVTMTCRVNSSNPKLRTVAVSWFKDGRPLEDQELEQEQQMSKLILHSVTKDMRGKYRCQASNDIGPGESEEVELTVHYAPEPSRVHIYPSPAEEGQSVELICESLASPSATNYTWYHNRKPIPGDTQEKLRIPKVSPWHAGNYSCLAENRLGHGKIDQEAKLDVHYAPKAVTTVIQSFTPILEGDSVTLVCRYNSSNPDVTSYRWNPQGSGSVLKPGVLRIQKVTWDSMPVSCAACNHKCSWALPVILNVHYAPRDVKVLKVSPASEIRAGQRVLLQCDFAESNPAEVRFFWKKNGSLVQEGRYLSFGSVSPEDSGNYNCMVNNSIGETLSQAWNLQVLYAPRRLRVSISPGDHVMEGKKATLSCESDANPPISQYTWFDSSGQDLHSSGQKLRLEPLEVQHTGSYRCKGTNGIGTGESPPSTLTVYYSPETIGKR
In short: as §1

Chain of cynomolgus Siglec-2/CD22 (A0A2K5WCZ6 entry or part of it): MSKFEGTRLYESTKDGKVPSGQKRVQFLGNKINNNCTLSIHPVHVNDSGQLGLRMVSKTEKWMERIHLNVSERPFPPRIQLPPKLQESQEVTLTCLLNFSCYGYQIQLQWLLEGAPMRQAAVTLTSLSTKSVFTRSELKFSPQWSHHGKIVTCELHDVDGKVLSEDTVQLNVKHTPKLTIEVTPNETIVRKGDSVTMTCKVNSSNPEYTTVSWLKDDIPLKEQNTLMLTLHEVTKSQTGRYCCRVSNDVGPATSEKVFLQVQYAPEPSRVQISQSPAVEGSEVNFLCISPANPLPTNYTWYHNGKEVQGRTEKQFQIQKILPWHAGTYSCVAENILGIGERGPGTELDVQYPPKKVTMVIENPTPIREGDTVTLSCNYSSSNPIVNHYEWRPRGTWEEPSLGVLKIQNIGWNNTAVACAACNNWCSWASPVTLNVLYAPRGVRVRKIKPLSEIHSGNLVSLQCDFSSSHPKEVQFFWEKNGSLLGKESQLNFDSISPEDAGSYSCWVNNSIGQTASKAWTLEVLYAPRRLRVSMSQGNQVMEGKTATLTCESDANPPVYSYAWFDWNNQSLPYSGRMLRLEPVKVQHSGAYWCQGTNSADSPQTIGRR

| Compound | Kd (cynomolgus Siglec-2/CD22) | Kd [1] | Kd [2] |
| --- | --- | --- | --- |
| C#CCOCCOCCNc1c(NCCCCCCO[C@]2(C(=O)O)C[C@H](O)[C@@H](NC(=O)CO)[C@H]([C@H](O)[C@H](O)CNC(=O)c3ccc(C(F)F)cc3)O2)c(=O)c1=O [Compound 231, (2R,4S,5R,6R)-6-((1R,2R)-3-(4-(difluoromethyl)benzamido)-1,2-dihydroxypropyl)-2-((6-((3,4-dioxo-2-((2-(2-(prop-2-yn-1-yloxy)ethoxy)ethyl)amino)cyclobut-1-en-1-yl)amino)hexyl)oxy)-4-hydroxy-5-(2-hydroxyacetamido)tetrahydro-2H-pyran-2-carboxylic acid] | < 1000 nM | < 1000 nM | 1000 to 10000 nM |
| C#CCOCCCCCCO[C@]1(C(=O)O)C[C@H](O)[C@@H](NC(=O)CO)[C@H]([C@H](O)[C@H](O)CNC(=O)Cc2ccc(Cl)cc2)O1 [Compound 113, (2R,4S,5R,6R)-6-((1R,2R)-3-(2-(4-chlorophenyl)acetamido)-1,2-dihydroxypropyl)-4-hydroxy-5-(2-hydroxyacetamido)-2-((6-(prop-2-yn-1-yloxy)hexyl)oxy)tetrahydro-2H-pyran-2-carboxylic acid] | < 1000 nM | < 1000 nM | 1000 to 10000 nM |
| C#CCOCCOCCO[C@]1(C(=O)O)C[C@H](O)[C@@H](NC(=O)CO)[C@H]([C@H](O)[C@H](O)CNC(=O)Cn2cc(-c3ccccc3)nn2)O1 [Compound 177, (2R,4S,5R,6R)-6-((1R,2R)-1,2-dihydroxy-3-(2-(4-phenyl-1H-1,2,3-triazol-1-yl)acetamido)propyl)-4-hydroxy-5-(2-hydroxyacetamido)-2-(2-(2-(prop-2-yn-1-yloxy)ethoxy)ethoxy)tetrahydro-2H-pyran-2-carboxylic acid] | 1000 to 10000 nM | 1000 to 10000 nM | > 10000 nM |
| C#CCOc1ccc(CO[C@]2(C(=O)O)C[C@H](O)[C@@H](NC(=O)CO)[C@H]([C@H](O)[C@H](O)CNC(=O)Cc3ccccc3F)O2)cc1 [Compound 165, (2R,4S,5R,6R)-6-((1R,2R)-3-(2-(2-fluorophenyl)acetamido)-1,2-dihydroxypropyl)-4-hydroxy-5-(2-hydroxyacetamido)-2-((4-(prop-2-yn-1-yloxy)benzyl)oxy)tetrahydro-2H-pyran-2-carboxylic acid] | 1000 to 10000 nM | < 1000 nM | 1000 to 10000 nM |
| C#CCCOc1ccc(CO[C@]2(C(=O)O)C[C@H](O)[C@@H](NC(=O)CO)[C@H]([C@H](O)[C@H](O)CNC(=O)Cc3ccc(NC(C)=O)cc3)O2)cc1 [Compound 168, (2R,4S,5R,6R)-6-((1R,2R)-3-(2-(4-acetamidophenyl)acetamido)-1,2-dihydroxypropyl)-2-((4-(but-3-yn-1-yloxy)benzyl)oxy)-4-hydroxy-5-(2-hydroxyacetamido)tetrahydro-2H-pyran-2-carboxylic acid] | 1000 to 10000 nM | 1000 to 10000 nM | 1000 to 10000 nM |
| CC(=O)NCCOCCOCCOCCOCCNc1c(NCCOCCOCCO[C@]2(C(=O)O)C[C@H](O)[C@@H](NC(=O)CO)[C@H]([C@H](O)[C@H](O)CNC(=O)Cc3ccc(Cl)cc3)O2)c(=O)c1=O [Cpd. 247, (2R,4S,5R,6R)-6-((1R,2R)-3-(2-(4-chlorophenyl)acetamido)-1,2-dihydroxypropyl)-2-(2-(2-(2-((3,4-dioxo-2-((2-oxo-6,9,12,15-tetraoxa-3-azaheptadecan-17-yl)amino)cyclobut-1-en-1-yl)amino)ethoxy)ethoxy)ethoxy)-4-hydroxy-5-(2-hydroxyacetamido) tetrahydro-2H-pyran-2-carboxylic acid] | 1000 to 10000 nM | 1000 to 10000 nM | 1000 to 10000 nM |
| C#CCOc1ccc(CO[C@]2(C(=O)O)C[C@H](O)[C@@H](NC(=O)CO)[C@H]([C@H](O)[C@H](O)CNC(=O)Cc3cccc(O)c3)O2)cc1 [Compound 150, (2R,4S,5R,6R)-6-((1R,2R)-1,2-dihydroxy-3-(2-(3-hydroxyphenyl)acetamido)propyl)-4-hydroxy-5-(2-hydroxyacetamido)-2-((4-(prop-2-yn-1-yloxy)benzyl)oxy)tetrahydro-2H-pyran-2-carboxylic acid] | 1000 to 10000 nM | < 1000 nM | 1000 to 10000 nM |
| C#CCCOc1cccc(CO[C@]2(C(=O)O)C[C@H](O)[C@@H](NC(=O)CO)[C@H]([C@H](O)[C@H](O)CNC(=O)Cc3ccc(-c4ccccc4)cc3)O2)c1 [Compound 38, (2R,4S,5R,6R)-6-((1R,2R)-3-(2-([1,1′-biphenyl]-4-yl)acetamido)-1,2-dihydroxypropyl)-2-((3-(but-3-yn-1-yloxy)benzyl)oxy)-4-hydroxy-5-(2-hydroxyacetamido)tetrahydro-2H-pyran-2-carboxylic acid] | < 1000 nM | < 1000 nM | < 1000 nM |
| C#CCOCCCCCCO[C@]1(C(=O)O)C[C@H](O)[C@@H](NC(C)=S)[C@H]([C@H](O)[C@H](O)CNC(=O)Cc2ccc(Cl)cc2)O1 [Compound 26, (2R,4S,5R,6R)-6-((1R,2R)-3-(2-(4-chlorophenyl)acetamido)-1,2-dihydroxypropyl)-5-ethanethioamido-4-hydroxy-2-((6-(prop-2-yn-1-yloxy)hexyl)oxy)tetrahydro-2H-pyran-2-carboxylic acid] | < 1000 nM | < 1000 nM | < 1000 nM |
| C#CCOCCOCCO[C@]1(C(=O)O)C[C@H](O)[C@@H](NC(=O)CO)[C@H]([C@H](O)[C@H](O)CNC(=O)C[C@H]2CC[C@@H](O)CC2)O1 [Compound 200, (2R,4S,5R,6R)-6-((1R,2R)-1,2-dihydroxy-3-(2-((1s,4S)-4-hydroxycyclohexyl)acetamido)propyl)-4-hydroxy-5-(2-hydroxyacetamido)-2-(2-(2-(prop-2-yn-1-yloxy)ethoxy)ethoxy)tetrahydro-2H-pyran-2-carboxylic acid] | > 10000 nM | > 10000 nM | > 10000 nM |
| C#CCOCCOCCO[C@]1(C(=O)O)C[C@H](O)[C@@H](NC(=O)CO)[C@H]([C@H](O)[C@H](O)CNC(=O)c2cc3c(s2)-c2ccccc2OC3)O1 [Compound 179, (2R,4S,5R,6R)-6-((1R,2R)-1,2-dihydroxy-3-(4H-thieno[3,2-c]chromene-2-carboxamido)propyl)-4-hydroxy-5-(2-hydroxyacetamido)-2-(2-(2-(prop-2-yn-1-yloxy)ethoxy)ethoxy)tetrahydro-2H-pyran-2-carboxylic acid] | 1000 to 10000 nM | < 1000 nM | > 10000 nM |
| C#CCOCCCCCCO[C@]1(C(=O)O)C[C@H](O)[C@@H](NC(=O)Cc2ccccc2)[C@H]([C@H](O)[C@H](O)CNC(=O)Cc2ccc(Cl)cc2)O1 [Compound 93, (2R,4S,5R,6R)-6-((1R,2R)-3-(2-(4-chlorophenyl)acetamido)-1,2-dihydroxypropyl)-4-hydroxy-5-(2-phenylacetamido)-2-((6-(prop-2-yn-1-yloxy)hexyl)oxy)tetrahydro-2H-pyran-2-carboxylic acid] | > 10000 nM | 1000 to 10000 nM | > 10000 nM |
| C#CCOCCOCCO[C@]1(C(=O)O)C[C@H](O)[C@@H](NC(=O)CO)[C@H]([C@H](O)[C@H](O)CNC(=O)c2cccc(Cl)c2)O1 [Compound 201, (2R,4S,5R,6R)-6-((1R,2R)-3-(3-chlorobenzamido)-1,2-dihydroxypropyl)-4-hydroxy-5-(2-hydroxyacetamido)-2-(2-(2-(prop-2-yn-1-yloxy)ethoxy)ethoxy)tetrahydro-2H-pyran-2-carboxylic acid] | > 10000 nM | > 10000 nM | > 10000 nM |
